This note sets out measurements from US6617355B1, “Treating asthma by preventing and/or accomodating S-nitrosothiol breakdown” (The University of Virginia Patent Foundation, priority 1997, dated 2003).

Experiment [1] concerns patient with severe asthma. Briefly: Treatment of patients with severe asthma or respiratory failure (Examples I-IX). Type of experiment: in vivo, human. As for the experimental part: A child with severe asthma developing symptoms of dyspnea, tachypnea, wheezing and cough is administered a 50 mM solution of L-gamma-glutamyl-(o-carboxy)phenylhydrazide as an aerosol via inhalation at a dosage of 0.01 ml/kg.
A person with severe asthma with symptoms of dyspnea on exertion, cough and prolonged expiration is administered a 10 mM solution of bathocuproine disulfonate via inhalation as an aerosol at a dose of 0.01 ml/kg.
A person with severe asthma with chronic symptoms of night-time cough, dyspnea and wheezing is maintained on inhalations of an aerosol of a 10 mM solution of each of S-nitrosoglutathione and aurothioglucose, at a dosage of 0.01 ml/kg.
A child with severe asthma and impending respiratory failure with symptoms of wheezing, cough and cyanosis is given terbutaline (5 μg/kg/min) by continuous IV-infusion. […] The terbutaline is replaced with an equimolar amount of terbutaline substituted with S-nitrosothiol group.
A person has respiratory failure with symptoms of wheezing, cough and cyanosis.
A person with respiratory failure with symptoms as described in Example V is given inhalation of a 10 mmol solution of S-nitroso-D-cysteine, 0.01 ml/kg.
A severe asthmatic with chronic dyspnea is given 30 mg daily prednisone.
A severe asthmatic is treated with inhalation of 1 mg allopurinol.
A severe asthmatic is treated with inhalation of a 10 mM solution of each of S-nitrosomethylmercaptan and ethacrynic acid, at a dosage of 0.01 ml/kg.

The subject of experiment [2] is patients with mild or moderate asthma. Put plainly: Treatment of patients with mild or moderate asthma (Examples X-XI). In kind it is in vivo, human. As for the experimental part: A child wakes up every night coughing and coughs on exertion. The patient is given inhalations of 0.01 ml/kg of a 10 mM solution of S-nitroso-D-cysteine.
Experiment [3] has as its system Guinea-pig tracheal rings. Briefly: Relaxation of methacholine-contracted guinea-pig tracheal rings by S-nitrosoglutathione pre-incubated with or without lung fractions. To be noted: n=7. In kind it is cell-based. On the procedure:
Guinea-pig tracheal and lung parenchymal tissue were separately homogenized in 1 mM ethylenediaminetetraacetic acid, 50 mM TRIS HC1 buffer, pH 7.4, 10 mg/liter soybean trypsin inhibitor, 10 mg/liter pepstatin, 10 mg/liter chymostatin and 100 mg/liter phenylmethylsulfonyl fluoride at 4° C. and underwent centrifugation (5,000 g; 5 min) and filtration. The supernatant was loaded onto a DEAE cellulose column and eluted with a linear gradient of 0-250 mM NaCl. The S-nitrosoglutathione degrading activity was assayed as NO evolution. The results are depicted in FIG. 1 (fractions causing a net loss of NO are represented by diamonds).
Guinea-pig tracheal rings were suspended in Krebs-Henseleit buffer (pH 7.4, 37 degrees C., equilibrated with 95% oxygen/5% carbon dioxide) and equilibrated under one gram tension. Smooth muscle contraction was monitored using a force transducer. After contraction with 5 μM methacholine, rings were exposed to S-nitrosoglutathione which had been incubated (30 minutes, pH 7.4, 25 degrees C.) (a) in phosphate buffered saline alone, (b) with guinea-pig lung protein fractions having S-nitroglutathione breakdown activity isolated as described in Background Example 2, and (c) with active lung fractions and 100 μM aurothioglucose. […]

With `NC(CCC(=O)NNc1ccccc1C(=O)O)C(=O)O` [L-gamma-glutamyl-(o-carboxy)phenylhydrazide], the asthma symptoms entry in experiment [1] (Example I: child, severe asthma, 50 mM solution as aerosol via inhalation, 0.01 ml/kg) is recorded as “symptoms improve”.

As to `N[C@H](CSN=O)C(=O)O` [S-nitroso-D-cysteine], the asthma symptoms entry is “Improvement occurs” in experiment [1] (Example VI: person, respiratory failure, inhalation of 10 mmol solution, 0.01 ml/kg); “sleeps through the night and is able to participate in sports without shortness of breath” in experiment [2] (Example X: child, night cough and cough on exertion, inhalations of 0.01 ml/kg of 10 mM solution).

In the case of `N[C@@H](CCC(=O)N[C@@H](CSN=O)C(=O)NCC(=O)O)C(=O)O` [S-nitrosoglutathione], the “relaxation of tracheal rings by S-nitrosoglutathione after incubation with active lung fractions” value in experiment [3] (rings contracted with 5 μM methacholine, S-nitrosoglutathione incubated 30 minutes, pH 7.4, 25 degrees C with guinea-pig lung protein fractions, p<0.005 for all concentrations >500 nM) was “relaxation was nearly completely inhibited”.

On to `N[C@H](C(=O)O)[C@@H]1CC(Cl)=NO1` [acivicin], for which the asthma symptoms result in experiment [1] (Example V: person, respiratory failure, parenteral methylprednisone 4 mg/kg and terbutaline 5 μg/kg/min, then nebulized acivicin 0.01 mmol/kg) is “symptoms improve”; in experiment [2] (Example XI: person, wheezing and coughing three times a year, nebulized 0.01 mmol/kg), “becomes asymptomatic”.

Take `Oc1ncnc2[nH]ncc12` [allopurinol]: the asthma symptoms result in experiment [1] (Example VIII: severe asthmatic, inhalation of 1 mg) is listed as “Symptoms improve”.

As for `OC[C@H]1O[C@H]([S-])[C@H](O)[C@@H](O)[C@@H]1O.[Au+]` [aurothioglucose], the “restoration of S-nitrosoglutathione relaxation by inhibitor of breakdown” value in experiment [3] (S-nitrosoglutathione incubated with active lung fractions and 100 μM aurothioglucose, p<0.001 at 50 μM) is recorded as “partially restored”.

In the case of `Cc1cc(-c2ccc(S(=O)(=O)O)cc2)c2ccc3c(-c4ccc(S(=O)(=O)O)cc4)cc(C)nc3c2n1` [bathocuproine disulfonate], in experiment [1] (Example II: person, severe asthma, 10 mM solution via inhalation as aerosol, 0.01 ml/kg), the asthma symptoms result was “symptoms improve”.

With `CC(C)(C)NCC(O)c1cc(O)cc(O)c1` (stereo not shown) [terbutaline], in experiment [1] (Example IV: child, severe asthma, impending respiratory failure, continuous IV-infusion 5 μg/kg/min or equimolar amount), the asthma symptoms entry was “No improvement occurs”.
